One block for each compound: values may come before it. The source made the active and inactive calls. No cut-off for these calls is given here.
Experiments:
HBZY-1 [1] = test: Cytotoxicity against rat HBZY-1 cells assessed as decrease in cell viability after 72 hrs by MTT assay; format: cell-based; settings: HBZY-1, 72 h
HBZY-1 [2] = test: Cytoprotection against H2O2-induced cell death in rat HBZY-1 cells assessed as cell viability at 6 uM preincubated for 2 hrs followed by H2O2 addition and measured after 24 hrs by MTT assay (reference value: 62.1%); format: functional; settings: read-out: Activity
HBZY-1 [3] = test: Cytoprotection against H2O2-induced cell death in rat HBZY-1 cells assessed as increase in cell viability preincubated for 2 hrs followed by H2O2 addition and measured after 24 hrs by MTT assay; format: functional, cell-based
HBZY-1 [4] = test: Antioxidant activity in rat HBZY-1 cells assessed as inhibition of H2O2-induced ROS accumulation […] for 12 hrs followed by H2O2 addition and measured after 3 hrs by DCFHA-DA/FITC staining-based FACS analysis; format: functional, cell-based
[5] = molecular target: T1, Nuclear factor erythroid 2-related factor 2 (Homo sapiens) (UniProt Q16236); test: Activation of Nrf2 (unknown origin) expressed in HEK293 cells after 16 hrs by luciferase reporter gene assay; format: cell-based
T1 sequence (whole entry): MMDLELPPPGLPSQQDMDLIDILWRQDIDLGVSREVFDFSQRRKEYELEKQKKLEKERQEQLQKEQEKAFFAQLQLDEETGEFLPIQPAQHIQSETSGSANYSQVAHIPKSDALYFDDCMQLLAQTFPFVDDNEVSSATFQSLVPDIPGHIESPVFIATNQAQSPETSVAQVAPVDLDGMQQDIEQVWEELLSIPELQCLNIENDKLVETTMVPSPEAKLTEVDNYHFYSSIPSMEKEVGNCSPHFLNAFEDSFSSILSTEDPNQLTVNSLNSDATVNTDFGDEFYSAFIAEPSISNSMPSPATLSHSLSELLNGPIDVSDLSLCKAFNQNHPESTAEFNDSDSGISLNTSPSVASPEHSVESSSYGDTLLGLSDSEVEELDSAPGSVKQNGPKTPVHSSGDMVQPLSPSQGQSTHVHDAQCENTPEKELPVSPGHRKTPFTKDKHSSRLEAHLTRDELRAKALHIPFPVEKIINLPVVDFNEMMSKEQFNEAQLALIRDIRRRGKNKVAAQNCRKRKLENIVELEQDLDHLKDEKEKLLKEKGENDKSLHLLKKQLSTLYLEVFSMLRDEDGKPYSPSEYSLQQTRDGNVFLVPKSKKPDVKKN

HBZY-1 [6] = test: Cytoprotection against H2O2-induced cell death in rat HBZY-1 cells assessed as increase in cell viability at 6 uM pre-incubated for 2 hrs with 100 nM TRG prior to compound addition followed by 2 hrs incubation before H2O2 addition and measured after 24 hrs by MTT assay; format: functional, cell-based
HBZY-1 [7] = test: Cytoprotection against H2O2-induced cell death in rat HBZY-1 cells assessed as increase in cell viability at 6 uM preincubated for 2 hrs with 200 nM TRG prior to compound addition followed by 2 hrs incubation before H2O2 addition and measured after 24 hrs by MTT assay; format: functional, cell-based
HBZY-1 [8] = test: Cytoprotection against H2O2-induced cell death in rat HBZY-1 cells assessed as increase in cell viability at 6 uM preincubated for 2 hrs with 3 nM ZNPP prior to compound addition followed by 2 hrs incubation before H2O2 addition and measured after 24 hrs by MTT assay; format: functional, cell-based
HBZY-1 [9] = test: Cytoprotection against H2O2-induced cell death in rat HBZY-1 cells assessed as increase in cell viability at 6 uM preincubated for 2 hrs with 6 nM ZNPP prior to compound addition followed by 2 hrs incubation before H2O2 addition and measured after 24 hrs by MTT assay; format: functional, cell-based
HBZY-1 [10] = test: Cytoprotection against H2O2-induced cell death in rat HBZY-1 cells assessed as increase in cell viability at 6 uM preincubated for 2 hrs with 10 nM BSO prior to compound addition followed by 2 hrs incubation before H2O2 addition and measured after 24 hrs by MTT assay; format: functional, cell-based
HBZY-1 [11] = test: Cytoprotection against H2O2-induced cell death in rat HBZY-1 cells assessed as increase in cell viability at 6 uM preincubated for 2 hrs with 20 nM BSO prior to compound addition followed by 2 hrs incubation before H2O2 addition and measured after 24 hrs by MTT assay; format: functional, cell-based
[12] = molecular target: T2, Keap1/Nrf2 (Homo sapiens) (UniProt Q16236+Q14145); test: Induction of Keap1/Nrf2 (unknown origin) interaction assessed as increase in Nfr2 level in presence of DTT by Western blot analysis; format: protein assay
HBZY-1 [13] = test: Cytotoxicity against rat HBZY-1 cells assessed as decrease in cell viability up to 200 uM after 72 hrs by MTT assay; format: cell-based; settings: hbzy-1, 72 h
[14] = molecular target: T2, Keap1/Nrf2 (Homo sapiens); test: Induction of Keap1/Nrf2 (unknown origin) interaction assessed as increase in Nfr2 level in absence of DTT by Western blot analysis; format: protein assay
[15] = molecular target: T2, Keap1/Nrf2 (Homo sapiens); test: Induction of Keap1/Nrf2 (unknown origin) interaction assessed as reduction in Nfr2 level in presence of DTT by Western blot analysis; format: protein assay
[16] = molecular target: T2, Keap1/Nrf2 (Homo sapiens); test: Induction of Keap1/Nrf2 (unknown origin) interaction assessed as reduction in Nfr2 level in absence of DTT by Western blot analysis; format: protein assay
HBZY-1 [17] = test: Cytoprotection against H2O2-induced cell death in rat HBZY-1 cells assessed as increase in cell viability at 6 uM preincubated for 2 hrs followed by H2O2 addition and measured after 24 hrs by MTT assay; format: functional, cell-based
HBZY-1 [18] = test: Cytoprotection against H2O2-induced cell death in rat HBZY-1 cells assessed as cell viability at 100 uM preincubated for 2 hrs followed by H2O2 addition and measured after 24 hrs by MTT assay (reference value: 62.1%); format: functional; settings: read-out: Activity
[19] = molecular target: T3, Nuclear factor erythroid 2-related factor 2 (Rattus norvegicus) (UniProt O54968); test: Activation of Nrf2 in rat HBZY-1 cells assessed as increase in NQO-1 level at 6 uM by Western blot analysis; format: cell-based
T3 sequence (whole entry): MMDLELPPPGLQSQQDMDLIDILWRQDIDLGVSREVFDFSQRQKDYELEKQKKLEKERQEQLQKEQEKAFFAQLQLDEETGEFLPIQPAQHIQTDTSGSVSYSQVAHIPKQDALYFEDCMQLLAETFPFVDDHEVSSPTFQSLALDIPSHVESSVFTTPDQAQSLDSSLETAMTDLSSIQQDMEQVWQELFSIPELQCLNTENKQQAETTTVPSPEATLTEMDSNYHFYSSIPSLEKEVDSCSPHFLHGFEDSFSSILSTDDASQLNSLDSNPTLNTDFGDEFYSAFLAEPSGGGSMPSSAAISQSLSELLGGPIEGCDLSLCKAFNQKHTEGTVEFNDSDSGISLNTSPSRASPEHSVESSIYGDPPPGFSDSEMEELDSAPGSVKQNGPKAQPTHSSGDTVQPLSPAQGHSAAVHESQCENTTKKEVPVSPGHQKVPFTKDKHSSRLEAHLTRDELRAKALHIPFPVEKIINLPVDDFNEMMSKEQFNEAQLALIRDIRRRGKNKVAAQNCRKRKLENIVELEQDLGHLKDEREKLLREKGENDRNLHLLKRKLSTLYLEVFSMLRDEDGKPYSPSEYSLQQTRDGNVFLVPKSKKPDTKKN

[20] = molecular target: T3, Nuclear factor erythroid 2-related factor 2 (Rattus norvegicus); test: Activation of Nrf2 in rat HBZY-1 cells assessed as increase in HO-1 level at 6 uM by Western blot analysis; format: cell-based
[21] = molecular target: T3, Nuclear factor erythroid 2-related factor 2 (Rattus norvegicus); test: Activation of Nrf2 in rat HBZY-1 cells assessed as increase in GCLM level at 6 uM by Western blot analysis; format: cell-based
[22] = molecular target: T3, Nuclear factor erythroid 2-related factor 2 (Rattus norvegicus); test: Activation of Nrf2 in rat HBZY-1 cells assessed as increase in GCLC level at 6 uM by Western blot analysis; format: cell-based
[23] = molecular target: T3, Nuclear factor erythroid 2-related factor 2 (Rattus norvegicus); test: Activation of Nrf2 in rat HBZY-1 cells assessed as increase in NQO-1 mRNA expression at 6 uM after 24 hrs by RT-PCR analysis; format: cell-based
[24] = molecular target: T3, Nuclear factor erythroid 2-related factor 2 (Rattus norvegicus); test: Activation of Nrf2 in rat HBZY-1 cells assessed as increase in HO-1 mRNA expression at 6 uM after 24 hrs by RT-PCR analysis; format: cell-based
[25] = molecular target: T3, Nuclear factor erythroid 2-related factor 2 (Rattus norvegicus); test: Activation of Nrf2 in rat HBZY-1 cells assessed as increase in GCLM mRNA expression at 6 uM after 24 hrs by RT-PCR analysis; format: cell-based
[26] = molecular target: T3, Nuclear factor erythroid 2-related factor 2 (Rattus norvegicus); test: Activation of Nrf2 in rat HBZY-1 cells assessed as increase in GCLC mRNA expression at 6 uM after 24 hrs by RT-PCR analysis; format: cell-based

T2 sequence (Q14145 whole entry, looked up, one chain of several): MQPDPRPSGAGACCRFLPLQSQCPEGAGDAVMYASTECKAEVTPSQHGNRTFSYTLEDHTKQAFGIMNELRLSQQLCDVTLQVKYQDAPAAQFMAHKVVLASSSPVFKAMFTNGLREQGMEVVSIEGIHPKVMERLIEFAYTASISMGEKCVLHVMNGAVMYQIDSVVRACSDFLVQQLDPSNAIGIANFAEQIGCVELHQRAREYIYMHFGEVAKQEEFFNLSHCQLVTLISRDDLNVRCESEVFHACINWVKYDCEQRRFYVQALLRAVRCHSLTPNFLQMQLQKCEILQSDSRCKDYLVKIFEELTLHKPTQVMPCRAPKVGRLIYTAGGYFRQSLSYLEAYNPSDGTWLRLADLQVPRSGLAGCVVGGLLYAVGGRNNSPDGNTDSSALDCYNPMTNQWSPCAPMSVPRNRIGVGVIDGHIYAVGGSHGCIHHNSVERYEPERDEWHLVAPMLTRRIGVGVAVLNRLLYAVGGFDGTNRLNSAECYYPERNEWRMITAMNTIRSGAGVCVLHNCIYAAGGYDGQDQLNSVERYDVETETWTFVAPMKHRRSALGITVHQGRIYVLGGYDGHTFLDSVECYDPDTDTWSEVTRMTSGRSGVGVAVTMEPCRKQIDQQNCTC

Structure (SMILES): COC(=O)c1cc(OC)c2c(c1-c1c(/C=C(\C#N)C(=O)NCCc3ccc(OC)c(OC)c3)cc(OC)c3c1OCO3)OCO2
IC50 (HBZY-1 [1]): > 200 µM

Structure (SMILES): COC(=O)c1cc(OC)c2c(c1-c1c(/C=C/C(=O)Nc3ccccc3OC)cc(OC)c3c1OCO3)OCO2
viability at 6 µM (HBZY-1 [2]): 90.6% | IC50 (HBZY-1 [1]): > 200 µM

Structure (SMILES): CCCCNC(=O)/C=C/c1cc(OC)c2c(c1-c1c(C(=O)OC)cc(OC)c3c1OCO3)OCO2
IC50 (HBZY-1 [1]): > 200 µM

Structure (SMILES): COC(=O)c1cc(OC)c2c(c1-c1c(/C=C/C(=O)Nc3cc(OC)c(OC)c(OC)c3)cc(OC)c3c1OCO3)OCO2
IC50 (HBZY-1 [1]): > 200 µM

Structure (SMILES): COC(=O)c1cc(OC)c2c(c1-c1c(/C=C(\C#N)C(=O)NCc3ccc(OC)cc3)cc(OC)c3c1OCO3)OCO2
IC50 (HBZY-1 [1]): > 200 µM

Activity [5]: Dose-dependent effect | inhibition [12]: inactive | Activity [14]: Active | inhibition [15]: inactive | Activity [16]: Active
Structure (SMILES): COC(=O)c1cc(OC)c2c(c1-c1c(/C=C(\C#N)C(=O)Nc3ccc(OC)cc3)cc(OC)c3c1OCO3)OCO2
viability at 6 µM (HBZY-1 [2]): 97.2% | Activity (HBZY-1 [3]): Dose-dependent effect | inhibition (HBZY-1 [4]): Dose-dependent effect | Activity (HBZY-1 [6]): inactive | Activity (HBZY-1 [7]): inactive | Activity (HBZY-1 [8]): inactive | Activity (HBZY-1 [9]): inactive | Activity (HBZY-1 [10]): inactive | Activity (HBZY-1 [11]): inactive | Activity (HBZY-1 [13]): Non-Toxic | IC50 (HBZY-1 [1]): > 200 µM

Structure (SMILES): COC(=O)c1cc(OC)c2c(c1-c1c(/C=C(\C#N)C(=O)Nc3cc(OC)c(OC)c(OC)c3)cc(OC)c3c1OCO3)OCO2
IC50 (HBZY-1 [1]): > 200 µM

Structure (SMILES): COC(=O)c1cc(OC)c2c(c1-c1c(/C=C(\C#N)C(=O)Nc3ccc(OC)c(OC)c3)cc(OC)c3c1OCO3)OCO2
IC50 (HBZY-1 [1]): > 200 µM

Structure (SMILES): COC(=O)c1cc(OC)c2c(c1-c1c(/C=C/C(=O)Nc3ccc(OC)c(OC)c3)cc(OC)c3c1OCO3)OCO2
IC50 (HBZY-1 [1]): > 200 µM

Structure (SMILES): COc1ccc(/C=C(\C#N)C(=O)Nc2ccccc2OC)cc1
Activity (HBZY-1 [17]): inactive | IC50 (HBZY-1 [1]): > 200 µM

Structure (SMILES): COC(=O)c1cc(OC)c2c(c1-c1c(/C=C/C(=O)Nc3ccc(OC)cc3)cc(OC)c3c1OCO3)OCO2
IC50 (HBZY-1 [1]): > 200 µM

Structure (SMILES): COC(=O)c1cc(OC)c2c(c1-c1c(C(=O)OC)cc(OC)c3c1OCO3)OCO2 [BIFENDATE]
viability at 6 µM (HBZY-1 [2]): 66.1% | viability at 100 µM (HBZY-1 [18]): 89.8%

Structure (SMILES): COC(=O)c1cc(OC)c2c(c1-c1c(/C=C/C(=O)NCCc3ccc(OC)c(OC)c3)cc(OC)c3c1OCO3)OCO2
IC50 (HBZY-1 [1]): > 200 µM

Structure (SMILES): COc1ccccc1NC(=O)/C(C#N)=C/c1ccc(OC)c(OC)c1
Activity (HBZY-1 [17]): inactive | IC50 (HBZY-1 [1]): > 200 µM

Activity [19]: Active | Activity [20]: Active | Activity [21]: Active | Activity [22]: Active | Activity [23]: Active | Activity [24]: Active | Activity [25]: Active | Activity [26]: Active
Structure (SMILES): Oc1ccc(/C=C/c2cc(O)cc(O)c2)cc1

Structure (SMILES): COC(=O)c1cc(OC)c2c(c1-c1c(/C=C(\C#N)C(=O)Nc3ccccc3OC)cc(OC)c3c1OCO3)OCO2
viability at 6 µM (HBZY-1 [2]): 99.2% | Activity (HBZY-1 [3]): Dose-dependent effect | Activity (HBZY-1 [13]): Toxic | IC50 (HBZY-1 [1]): > 200 µM

Structure (SMILES): COC(=O)c1cc(OC)c2c(c1-c1c(/C=C/C(=O)NCc3ccc(OC)cc3)cc(OC)c3c1OCO3)OCO2
IC50 (HBZY-1 [1]): > 200 µM

Structure (SMILES): COc1ccccc1NC(=O)/C(C#N)=C/c1cc(OC)c(OC)c(OC)c1
Activity (HBZY-1 [17]): inactive | IC50 (HBZY-1 [1]): > 200 µM

Structure (SMILES): CCCCNC(=O)/C(C#N)=C/c1cc(OC)c2c(c1-c1c(C(=O)OC)cc(OC)c3c1OCO3)OCO2
viability at 6 µM (HBZY-1 [2]): 95.3% | IC50 (HBZY-1 [1]): > 200 µM
